The values that follow come from patent EP3917907B1, “MODULATORS OF POTASSIUM ION CHANNELS AND USES THEREOF” (Universitá Degli Studi Di Salerno, priority 2019, dated 2020).

Each structure is given as a SMILES string.

The conditions of series [1]: cited from earlier work.
In another series the target is T1, Kv7.1 (Homo sapiens, UniProt P51787).
T1 construct: expressed in transfected cells; host or cells: CHO cells (ATCC CRL-9618), transient transfection, pcDNA3.1(+)
Kind of series: Whole-cell patch-clamp on CHO cells transiently expressing Kv7.1. The series is classed as cell-based. Conditions: shift in ramp-voltage (ΔV) at 20% of maximal current, 0.01-10 µM. Here is the method: (§1) According to the experimental protocol, these plasmids were expressed individually or in combination (in particular of Kv7.2 and Kv7.3), together with a plasmid-expressing enhanced green fluorescent protein (Clontech, Palo Alto, CA) used as a transfection marker. Total cDNA in the transfection mixture was kept at 4 µg. CHO cells were grown in 100-mm plastic Petri dishes in Dulbecco's modified Eagle's medium containing 10% fetal bovine serum, nonessential amino acids (0.1 mM), penicillin (50 U/ml), and streptomycin ([…]) in a humidified atmosphere at 37°C with 5% CO2. The cells were plated on glass coverslips coated with poly-L-lysine, and transfected one day after plating with the appropriate cDNA using Lipofectamine 2000 (Life Technologies), according to the manufacturer's protocol.
Currents from CHO cells were recorded at room temperature (20-22°C) 24 hours after trasfection using the whole-cell configuration of the patch-clamp technique, with glass micropipettes of 3-5 MΩ resistance. During the recording, constant perfusion of extracellular solution was maintained. The extracellular solution contained (in mM): 138 NaCl, 2 CaCl2, 5.4 KCl, 1 MgCl2, 10 glucose, and 10 HEPES, at pH 7.4, adjusted with NaOH. The pipette (intracellular) solution contained (in mM): 140 KCl, 2 MgCl2, 10 EGTA, 10 HEPES, 5 Mg^2+-ATP, at pH 7.3-7.4, adjusted with KOH. Currents were recorded using an Axopatch-200A amplifier, filtered at 5 kHz, and digitized using a DigiData 1440A (Molecular Devices). The pCLAMP software (version 10.2, Molecular Devices) was used for data acquisition and analysis. To evaluate the activity of exemplary compounds on Kv7.2 (see Table 1), as well as on Kv7.1, Kv7.2/7.3, Kv7.3 and Kv7.4 channels for selected compounds (see Table 2), the cells were clamped at -80 mV and currents were elicited by 3-s voltage ramps from -80 mV to +20 mV in the presence and absence of each compound. […] The effects of drugs were expressed as shift in the ramp-voltage (ΔV) calculated at 20% of the maximal current (Miceli et al, Proc Natl Acad Sci U S A. 2013, 110(11):4386-91). […]

The target of another series is T2, Kv7.3 (Homo sapiens, UniProt O43525).
T2 construct: expressed in transfected cells; host or cells: CHO cells (ATCC CRL-9618), transient transfection, pcDNA3.1(+)
The series is described as follows: Whole-cell patch-clamp on CHO cells transiently expressing Kv7.3. The series is classed as cell-based. Conditions: shift in ramp-voltage (ΔV) at 20% of maximal current, 0.01-10 µM. Here is the method: as §1
(§2) Currents from CHO cells were recorded at room temperature (20-22°C) 24 hours after trasfection using the whole-cell configuration of the patch-clamp technique, with glass micropipettes of 3-5 MΩ resistance. During the recording, constant perfusion of extracellular solution was maintained. […] Currents were recorded using an Axopatch-200A amplifier, filtered at 5 kHz, and digitized using a DigiData 1440A (Molecular Devices). […] The effects of drugs were expressed as shift in the ramp-voltage (ΔV) calculated at 20% of the maximal current (Miceli et al, Proc Natl Acad Sci U S A. 2013, 110(11):4386-91). […]

For series [2], the target named is T3, Kv7.2 (Homo sapiens, UniProt O43526).
T3 construct: expressed in transfected cells; host or cells: CHO cells (ATCC CRL-9618), transient transfection, pcDNA3.1(+)
Kind of series: Whole-cell patch-clamp on CHO cells transiently expressing Kv7.2. Type of series: cell-based. Conditions: for EC50: Kv7.2, shift in ramp-voltage (ΔV) at 20% of maximal current, 0.01-10 µM; for Idrug/Ictl at 0 mV: ratio of ramp-evoked Kv7.2 current amplitude in presence and absence of drug at 0 mV; for Idrug/Ictl at 0 mV / Idrug/Ictl at -40 mV: CHO cells, mean±SEM, >1 activating, <1 inhibiting; for Idrug/Ictl at -40 mV: ratio of ramp-evoked Kv7.2 current amplitude in presence and absence of drug at -40 mV.

Series [3] deals with Kv7.2. Described as above. The conditions noted are these: ratio of EC50 values Kv7.3/Kv7.2. Type of series: cell-based, human.
Series [4] is described as follows: Photostability (HPLC, solar simulator irradiation). Conditions: for Photostability: percentage of degradation after 6 h irradiation with solar simulator, 100 ppm in extracellular solution pH 7.4. The series is classed as physicochemical. In outline:
(§3)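 Analyte diluted from 1 mg/mL DMSO stock to 100 ppm in extracellular buffer (NaCl, CaCl2, KCl, MgCl2, glucose, HEPES, pH 7.4) and either kept at ambient temperature or irradiated with a solar simulator, each for 6 h. C18 RP-HPLC (40°C) peak areas at 0 and 6 h give % degradation = (Pa0−Pa6)/Pa0 ×100.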

Another series deals with T4, Kv7.4 (Homo sapiens, UniProt P56696).
T4 construct: expressed in transfected cells; host or cells: CHO cells (ATCC CRL-9618), transient transfection, pcDNA3.1(+)
The series is described as follows: Whole-cell patch-clamp on CHO cells transiently expressing Kv7.4. The series is classed as cell-based. Conditions: shift in ramp-voltage (ΔV) at 20% of maximal current, 0.01-10 µM. Here is the method: as §1, §2

The target of the next series is T5, Kv7.2 W236L (Homo sapiens, UniProt O43526, W236L).
T5 construct: expressed in transfected cells; host or cells: CHO cells (ATCC CRL-9618), transient transfection, pcDNA3.1(+)
The series is described as follows: Whole-cell patch-clamp on CHO cells expressing Kv7.2 W236L mutant channels. The series is classed as cell-based. Conditions: 10 µM. Here is the method:
as §1, §2
Background: Patch clamp records ionic current or voltage across a cell membrane.

The next series has as its target T6, Kv7.2/7.3 (Homo sapiens, UniProt O43525+O43526).
T6 construct: expressed in transfected cells; host or cells: CHO cells (ATCC CRL-9618), transient co-transfection, pcDNA3.1(+)
The series is described as follows: Whole-cell patch-clamp on CHO cells co-expressing Kv7.2 and Kv7.3. The series is classed as cell-based. The conditions noted are these: for EC50: Kv7.2/7.3, shift in ramp-voltage (ΔV) at 20% of maximal current, 0.01-10 µM; for potency relative to retigabine in increasing Kv7.2/3 currents: from EC50 values of Table 2. How it is done: as §1
Currents from CHO cells were recorded at room temperature (20-22°C) 24 hours after trasfection using the whole-cell configuration of the patch-clamp technique, with glass micropipettes of 3-5 MΩ resistance. During the recording, constant perfusion of extracellular solution was maintained. The extracellular solution contained (in mM): 138 NaCl, 2 CaCl2, 5.4 KCl, 1 MgCl2, 10 glucose, and 10 HEPES, at pH 7.4, adjusted with NaOH. The pipette (intracellular) solution contained (in mM): 140 KCl, 2 MgCl2, 10 EGTA, 10 HEPES, 5 Mg^2+-ATP, at pH 7.3-7.4, adjusted with KOH. Currents were recorded using an Axopatch-200A amplifier, filtered at 5 kHz, and digitized using a DigiData 1440A (Molecular Devices). The pCLAMP software (version 10.2, Molecular Devices) was used for data acquisition and analysis. To evaluate the activity of exemplary compounds on Kv7.2 (see Table 1), as well as on Kv7.1, Kv7.2/7.3, Kv7.3 and Kv7.4 channels for selected compounds (see Table 2), the cells were clamped at -80 mV and currents were elicited by 3-s voltage ramps from -80 mV to +20 mV in the presence and absence of each compound. […] The effects of drugs were expressed as shift in the ramp-voltage (ΔV) calculated at 20% of the maximal current (Miceli et al, Proc Natl Acad Sci U S A. 2013, 110(11):4386-91). Curves were fitted using the following equation: y=max/(1+x/EC50)n, where x is the drug concentration, n is the Hill coefficient and max is the maximal value achieved, as previously described (Ambrosino et al, Br J Pharmacol. 2013, 168(6):1430-1444). Data analysis and fit were performed using Sigmaplot (version 12.3).

A short description of series [5]: Solution stability (HPLC, extracellular solution, ambient temperature). The series is classed as physicochemical. Conditions: percentage of degradation after 6 h at ambient temperature; 100 ppm in extracellular solution pH 7.4. In outline: as §3

On to `CCOC(=O)Nc1ccc(NCc2ccc(F)cc2)cc1N` [Retigabine, reference compound], for which the “fast absorption after oral administration (time after administration)” value in [1] is 1.5 to 2.0 h. Moreover, the EC50 result was “Inactive” at Kv7.1; 3900 ± 1700 nM at Kv7.3; 930 ± 430 nM on Kv7.2 [2]; 1980 ± 840 nM on Kv7.4; 1720 ± 410 nM at Kv7.2/7.3. The “Idrug/Ictl at 0 mV” value on Kv7.2 [2] turned out to be 1.95±0.12. In addition, the “Idrug/Ictl at -40 mV” value at Kv7.2 [2] is 6.20±1.03. Besides, the “potency in activating Kv7.2 compared to Kv7.3 homomers” value in the series with Kv7.2 [3] amounted to 4 fold. Moreover, the “drug degraded after exposure to light” value in series [4] (after 6 hours of exposure to light) is on record as above 40%. In [4], the Photostability entry is “C (degradation > 40%)”. The “ratio between current amplitude in the presence and absence of the drug at -40 mV” value on Kv7.2 W236L is 1.2±0.1. Besides, in [5], the Solution stability entry is listed as “A (degradation lower than 20%)”.

As to `CCCCCCC(=O)Nc1ccc2c(ccn2Cc2ccc(C(F)(F)F)cc2)c1` [N-(1-(4-(trifluoromethyl)benzyl)-1H-indol-5-yl)heptanamide], the half-maximal effective concentration (EC50) entry was “Inactive” at Kv7.1; 10500 ± 6000 nM at Kv7.3; 80 ± 40 nM at Kv7.2 [2]; 100 ± 20 nM on Kv7.4; 210 ± 140 nM on Kv7.2/7.3. Besides, on Kv7.2 [2], the “Idrug/Ictl at 0 mV” value is on record as 3.24±0.18. In addition, at Kv7.2 [2], the “Idrug/Ictl at -40 mV” value came to 9.34±0.82. Moreover, the “potency in activating Kv7.2 compared to Kv7.3 homomers” value with Kv7.2 [3] was “about 130 fold”. The Photostability entry in series [4] was “A (degradation lower than 20%)”. Besides, the “ratio between current amplitude in the presence and absence of the drug at -40 mV” value at Kv7.2 W236L turned out to be 1.3±0.3. Moreover, the “potency relative to retigabine in increasing Kv7.2/3 currents” value on Kv7.2/7.3 is recorded as “eight times more potent than retigabine”. Besides, the Solution stability result in [5] was “A (degradation lower than 20%)”.

On to `CCCCCCC(=O)Nc1ccc(NCc2ccc(C(F)(F)F)cc2)cc1N` [N-(2-amino-4-((4-(trifluoromethyl)benzyl)amino)phenyl)heptanamide], for which the EC50 result at Kv7.1 is “Inactive”. Also, at Kv7.2 [2], the “Idrug/Ictl at 0 mV” value is 2.55±0.56 and the “Idrug/Ictl at -40 mV” value was determined as 16.90±3.33. Also, in series [4], the Photostability entry is reported as “B (20%< degradation<40%)”. At Kv7.2/7.3, the 50% effective concentration (EC50) amounted to 200 ± 100 nM and the “potency relative to retigabine in increasing Kv7.2/3 currents” value was “eight times more potent than retigabine”. In [5], the Solution stability result is “A (degradation lower than 20%)”.

Regarding `COCCOCC(=O)Nc1ccc2c(ccn2Cc2ccc(C(F)(F)F)cc2)c1` [2-(2-methoxyethoxy)-N-(1-(4-(trifluoromethyl)benzyl)-1H-indol-5-yl)acetamide], on Kv7.2 [2], the “Idrug/Ictl at 0 mV” value turned out to be 0.86±0.01 and the “Idrug/Ictl at -40 mV” value is given as 1.50±0.16. In addition, the Photostability entry in [4] was “A (degradation lower than 20%)”. In addition, the Solution stability result in series [5] is “A (degradation lower than 20%)”.

For the compound `O=C(Nc1ccc2c(c1)CCN2Cc1ccc(F)cc1)C1CCCCC1` [N-(1-(4-fluorobenzyl)indolin-5-yl)cyclohexanecarboxamide], on Kv7.2 [2], the “Idrug/Ictl at 0 mV” value came out at 0.66±0.07 and the “Idrug/Ictl at -40 mV” value turned out to be 1.32±0.21. Further, the Photostability result in series [4] was “B (20%< degradation<40%)”. Further, the Solution stability result in series [5] is listed as “A (degradation lower than 20%)”.

With `O=S(=O)(Nc1ccc2c(c1)CCN2Cc1ccc(C(F)(F)F)cc1)C1CCCCC1` [N-(1-(4-(trifluoromethyl)benzyl)indolin-5-yl)cyclohexanesulfonamide], on Kv7.2 [2], the “Idrug/Ictl at 0 mV” value came out at 2.37±0.58 and the “Idrug/Ictl at -40 mV” value is reported as 3.2±0.20. For the same compound, the Photostability result in series [4] is reported as “C (degradation > 40%)”. The Solution stability entry in series [5] is given as “C (degradation > 40%)”.

For the compound `CC1(C)[C@@H]2CC[C@@]1(CS(=O)(=O)Nc1ccc3c(c1)CCN3Cc1ccc(F)cc1)C(=O)C2` [1-((1S,4R)-7,7-dimethyl-2-oxobicyclo[2.2.1]heptan-1-yl)-N-(1-(4-fluorobenzyl)indolin-5-yl)methanesulfonamide], on Kv7.2 [2], the “Idrug/Ictl at 0 mV” value is reported as 0.99±0.06 and the “Idrug/Ictl at -40 mV” value was found to be 1.12±0.05. Moreover, in series [4], the Photostability result is on record as “C (degradation > 40%)”. The Solution stability entry in series [5] is listed as “C (degradation > 40%)”.

Usually EC50 stands for the concentration needed to bring the measured effect to its halfway point.
